Test results reported in ChEMBL document CHEMBL3991601, “The target landscape of clinical kinase drugs” (Science, 2017).
Activity calls are given as the source filed them. Rule as the data show it, for most assays here: actives have a measured Kd and inactives only a lower limit.

How the values were obtained:
[1] = target: T1, RNA cytidine acetyltransferase (Homo sapiens, UniProt Q9H0A0)
T1 sequence (Q9H0A0 whole entry): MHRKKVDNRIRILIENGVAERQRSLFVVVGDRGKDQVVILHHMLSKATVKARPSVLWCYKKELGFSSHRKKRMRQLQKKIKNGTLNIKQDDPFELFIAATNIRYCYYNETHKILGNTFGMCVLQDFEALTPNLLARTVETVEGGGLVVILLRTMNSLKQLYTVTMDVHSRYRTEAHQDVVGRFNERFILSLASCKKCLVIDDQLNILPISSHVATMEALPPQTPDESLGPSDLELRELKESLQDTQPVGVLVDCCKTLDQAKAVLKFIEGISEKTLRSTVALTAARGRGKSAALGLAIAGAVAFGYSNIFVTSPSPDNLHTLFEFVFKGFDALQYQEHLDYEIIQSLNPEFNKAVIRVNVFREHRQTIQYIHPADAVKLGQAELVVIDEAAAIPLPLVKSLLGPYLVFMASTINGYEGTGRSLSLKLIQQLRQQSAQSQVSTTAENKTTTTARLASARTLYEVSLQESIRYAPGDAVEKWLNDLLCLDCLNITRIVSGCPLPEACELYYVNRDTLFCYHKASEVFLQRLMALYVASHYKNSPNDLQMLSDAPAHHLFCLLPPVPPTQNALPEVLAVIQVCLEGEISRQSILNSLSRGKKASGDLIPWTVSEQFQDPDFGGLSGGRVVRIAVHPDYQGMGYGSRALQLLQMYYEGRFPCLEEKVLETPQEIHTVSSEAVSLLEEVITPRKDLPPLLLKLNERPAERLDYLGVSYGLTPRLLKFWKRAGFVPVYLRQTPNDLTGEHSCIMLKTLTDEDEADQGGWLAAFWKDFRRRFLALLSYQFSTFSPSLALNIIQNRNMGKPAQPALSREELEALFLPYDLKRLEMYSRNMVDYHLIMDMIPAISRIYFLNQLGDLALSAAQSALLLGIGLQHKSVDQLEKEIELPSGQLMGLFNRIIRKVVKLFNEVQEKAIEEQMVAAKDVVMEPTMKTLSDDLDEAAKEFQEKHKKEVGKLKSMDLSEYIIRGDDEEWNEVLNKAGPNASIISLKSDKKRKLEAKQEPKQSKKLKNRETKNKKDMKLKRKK

[2] = target: Casein kinase I isoform delta (Homo sapiens, UniProt P48730)
[3] = target: Ribosomal protein S6 kinase alpha-1 (Homo sapiens, UniProt Q15418)
[4] = target: T2, General transcription and DNA repair factor IIH helicase subunit XPD (Homo sapiens, UniProt P18074); conditions: read-out: Kd apparent; k-562, colo 205, sk-n-be(2) and mv-4-11
T2 sequence (P18074 whole entry): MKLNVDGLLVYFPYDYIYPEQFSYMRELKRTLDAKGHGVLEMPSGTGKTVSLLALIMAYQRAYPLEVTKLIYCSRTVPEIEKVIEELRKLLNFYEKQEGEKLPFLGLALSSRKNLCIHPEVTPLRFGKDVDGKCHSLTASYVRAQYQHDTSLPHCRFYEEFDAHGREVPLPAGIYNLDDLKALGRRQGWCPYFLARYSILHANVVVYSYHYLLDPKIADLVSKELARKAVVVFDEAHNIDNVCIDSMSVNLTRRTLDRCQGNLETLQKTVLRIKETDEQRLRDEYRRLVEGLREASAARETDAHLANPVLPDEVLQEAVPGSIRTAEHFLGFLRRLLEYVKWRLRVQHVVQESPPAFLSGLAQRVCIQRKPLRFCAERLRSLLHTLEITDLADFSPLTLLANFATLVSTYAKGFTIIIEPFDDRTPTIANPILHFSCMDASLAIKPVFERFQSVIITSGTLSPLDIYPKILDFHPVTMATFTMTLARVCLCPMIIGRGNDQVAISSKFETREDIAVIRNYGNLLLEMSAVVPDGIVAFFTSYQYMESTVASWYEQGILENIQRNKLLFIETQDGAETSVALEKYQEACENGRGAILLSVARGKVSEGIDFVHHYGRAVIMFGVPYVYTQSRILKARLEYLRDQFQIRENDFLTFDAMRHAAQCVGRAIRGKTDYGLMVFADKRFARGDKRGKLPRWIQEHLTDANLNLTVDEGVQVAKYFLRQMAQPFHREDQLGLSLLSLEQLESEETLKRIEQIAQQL

[5] = target: Rho-associated protein kinase 2 (Homo sapiens, UniProt O75116)
[6] = target: Dual specificity tyrosine-phosphorylation-regulated kinase 1A (Homo sapiens, UniProt Q13627)
[7] = target: Serine/threonine-protein kinase N1 (Homo sapiens, UniProt Q16512)
[8] = target: Interleukin-1 receptor-associated kinase 1 (Homo sapiens, UniProt P51617)
[9] = target: T3, Glycogen phosphorylase, brain form (Homo sapiens, UniProt P11216)
T3 sequence (P11216 whole entry): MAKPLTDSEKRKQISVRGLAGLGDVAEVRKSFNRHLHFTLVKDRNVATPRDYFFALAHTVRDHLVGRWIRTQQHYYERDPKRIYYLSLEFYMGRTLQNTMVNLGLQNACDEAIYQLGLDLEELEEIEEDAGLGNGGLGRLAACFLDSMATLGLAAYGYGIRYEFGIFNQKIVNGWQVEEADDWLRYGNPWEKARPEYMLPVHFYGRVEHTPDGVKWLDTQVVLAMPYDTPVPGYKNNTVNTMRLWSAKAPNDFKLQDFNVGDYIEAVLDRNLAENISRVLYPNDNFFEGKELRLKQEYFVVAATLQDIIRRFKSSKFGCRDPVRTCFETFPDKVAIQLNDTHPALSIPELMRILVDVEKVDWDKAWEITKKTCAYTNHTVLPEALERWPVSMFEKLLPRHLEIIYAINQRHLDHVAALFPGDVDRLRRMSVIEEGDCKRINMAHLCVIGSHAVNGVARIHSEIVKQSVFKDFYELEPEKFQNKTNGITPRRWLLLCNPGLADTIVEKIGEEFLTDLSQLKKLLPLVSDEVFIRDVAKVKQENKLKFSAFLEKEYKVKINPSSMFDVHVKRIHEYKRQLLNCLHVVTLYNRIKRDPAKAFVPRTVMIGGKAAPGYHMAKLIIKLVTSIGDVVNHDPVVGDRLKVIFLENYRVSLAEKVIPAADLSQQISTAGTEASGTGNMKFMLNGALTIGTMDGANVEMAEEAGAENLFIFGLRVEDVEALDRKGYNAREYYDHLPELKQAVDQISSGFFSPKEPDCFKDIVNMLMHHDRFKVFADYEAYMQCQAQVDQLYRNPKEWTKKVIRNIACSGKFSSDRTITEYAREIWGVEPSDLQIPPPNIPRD
Also: in the data inactive means no Kd found up to 30 µM.

Chain of Serine/threonine-protein kinase N1 (Q16512 whole entry): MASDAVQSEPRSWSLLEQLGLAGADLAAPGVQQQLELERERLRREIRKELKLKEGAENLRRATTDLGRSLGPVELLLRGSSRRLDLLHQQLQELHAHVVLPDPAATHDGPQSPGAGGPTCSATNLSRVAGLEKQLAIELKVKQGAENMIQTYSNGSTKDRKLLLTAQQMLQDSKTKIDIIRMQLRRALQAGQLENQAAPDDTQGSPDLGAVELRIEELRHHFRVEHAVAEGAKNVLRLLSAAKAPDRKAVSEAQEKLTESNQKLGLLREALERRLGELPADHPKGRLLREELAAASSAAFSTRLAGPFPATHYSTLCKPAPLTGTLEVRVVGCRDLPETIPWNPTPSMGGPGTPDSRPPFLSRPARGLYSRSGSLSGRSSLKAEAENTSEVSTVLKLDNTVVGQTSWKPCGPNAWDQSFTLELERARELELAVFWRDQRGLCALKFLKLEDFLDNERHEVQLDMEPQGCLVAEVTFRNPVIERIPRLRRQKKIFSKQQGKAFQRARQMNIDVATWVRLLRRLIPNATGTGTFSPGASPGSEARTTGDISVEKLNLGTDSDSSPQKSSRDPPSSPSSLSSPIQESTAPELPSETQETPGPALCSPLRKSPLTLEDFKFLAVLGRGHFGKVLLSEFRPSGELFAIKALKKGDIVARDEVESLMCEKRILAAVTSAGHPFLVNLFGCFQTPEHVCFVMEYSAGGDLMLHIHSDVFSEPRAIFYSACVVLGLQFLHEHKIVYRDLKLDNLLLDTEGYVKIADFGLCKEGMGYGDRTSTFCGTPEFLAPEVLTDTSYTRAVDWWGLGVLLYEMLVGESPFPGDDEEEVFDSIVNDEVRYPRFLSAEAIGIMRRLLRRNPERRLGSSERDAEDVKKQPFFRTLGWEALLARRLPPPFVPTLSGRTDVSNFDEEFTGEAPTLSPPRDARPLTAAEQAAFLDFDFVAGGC
Chain of Casein kinase I isoform delta (P48730 whole entry, canonical isoform): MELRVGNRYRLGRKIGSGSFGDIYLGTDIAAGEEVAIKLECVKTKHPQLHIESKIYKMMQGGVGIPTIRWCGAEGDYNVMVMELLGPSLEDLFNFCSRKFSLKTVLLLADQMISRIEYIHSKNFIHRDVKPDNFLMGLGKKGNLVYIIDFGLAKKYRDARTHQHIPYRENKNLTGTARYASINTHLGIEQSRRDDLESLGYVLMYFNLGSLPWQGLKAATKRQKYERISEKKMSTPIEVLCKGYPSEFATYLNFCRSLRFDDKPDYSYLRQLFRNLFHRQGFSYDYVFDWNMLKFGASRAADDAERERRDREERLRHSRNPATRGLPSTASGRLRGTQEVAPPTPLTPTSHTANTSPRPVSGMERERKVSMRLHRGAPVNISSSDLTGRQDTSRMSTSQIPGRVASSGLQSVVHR
Chain of Ribosomal protein S6 kinase alpha-1 (Q15418 whole entry): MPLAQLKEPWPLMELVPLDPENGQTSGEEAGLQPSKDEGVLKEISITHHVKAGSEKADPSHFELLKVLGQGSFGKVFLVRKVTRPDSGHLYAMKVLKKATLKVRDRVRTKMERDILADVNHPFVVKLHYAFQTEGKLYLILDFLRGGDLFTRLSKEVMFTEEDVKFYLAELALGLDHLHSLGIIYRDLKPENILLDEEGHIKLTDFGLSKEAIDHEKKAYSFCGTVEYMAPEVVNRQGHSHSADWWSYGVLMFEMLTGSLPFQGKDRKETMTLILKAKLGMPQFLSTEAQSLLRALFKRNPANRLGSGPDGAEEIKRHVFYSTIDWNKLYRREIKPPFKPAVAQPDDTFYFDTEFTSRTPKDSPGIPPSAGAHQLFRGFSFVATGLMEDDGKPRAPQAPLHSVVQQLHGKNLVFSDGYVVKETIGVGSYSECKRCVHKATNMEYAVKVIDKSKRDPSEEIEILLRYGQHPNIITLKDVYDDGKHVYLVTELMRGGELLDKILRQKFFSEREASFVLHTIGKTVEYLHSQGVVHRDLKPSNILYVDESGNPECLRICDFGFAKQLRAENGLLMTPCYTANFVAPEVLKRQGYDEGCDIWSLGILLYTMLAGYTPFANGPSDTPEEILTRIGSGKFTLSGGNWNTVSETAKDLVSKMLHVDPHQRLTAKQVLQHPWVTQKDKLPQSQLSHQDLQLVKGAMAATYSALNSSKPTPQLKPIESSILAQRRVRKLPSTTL
Chain of Rho-associated protein kinase 2 (O75116 whole entry): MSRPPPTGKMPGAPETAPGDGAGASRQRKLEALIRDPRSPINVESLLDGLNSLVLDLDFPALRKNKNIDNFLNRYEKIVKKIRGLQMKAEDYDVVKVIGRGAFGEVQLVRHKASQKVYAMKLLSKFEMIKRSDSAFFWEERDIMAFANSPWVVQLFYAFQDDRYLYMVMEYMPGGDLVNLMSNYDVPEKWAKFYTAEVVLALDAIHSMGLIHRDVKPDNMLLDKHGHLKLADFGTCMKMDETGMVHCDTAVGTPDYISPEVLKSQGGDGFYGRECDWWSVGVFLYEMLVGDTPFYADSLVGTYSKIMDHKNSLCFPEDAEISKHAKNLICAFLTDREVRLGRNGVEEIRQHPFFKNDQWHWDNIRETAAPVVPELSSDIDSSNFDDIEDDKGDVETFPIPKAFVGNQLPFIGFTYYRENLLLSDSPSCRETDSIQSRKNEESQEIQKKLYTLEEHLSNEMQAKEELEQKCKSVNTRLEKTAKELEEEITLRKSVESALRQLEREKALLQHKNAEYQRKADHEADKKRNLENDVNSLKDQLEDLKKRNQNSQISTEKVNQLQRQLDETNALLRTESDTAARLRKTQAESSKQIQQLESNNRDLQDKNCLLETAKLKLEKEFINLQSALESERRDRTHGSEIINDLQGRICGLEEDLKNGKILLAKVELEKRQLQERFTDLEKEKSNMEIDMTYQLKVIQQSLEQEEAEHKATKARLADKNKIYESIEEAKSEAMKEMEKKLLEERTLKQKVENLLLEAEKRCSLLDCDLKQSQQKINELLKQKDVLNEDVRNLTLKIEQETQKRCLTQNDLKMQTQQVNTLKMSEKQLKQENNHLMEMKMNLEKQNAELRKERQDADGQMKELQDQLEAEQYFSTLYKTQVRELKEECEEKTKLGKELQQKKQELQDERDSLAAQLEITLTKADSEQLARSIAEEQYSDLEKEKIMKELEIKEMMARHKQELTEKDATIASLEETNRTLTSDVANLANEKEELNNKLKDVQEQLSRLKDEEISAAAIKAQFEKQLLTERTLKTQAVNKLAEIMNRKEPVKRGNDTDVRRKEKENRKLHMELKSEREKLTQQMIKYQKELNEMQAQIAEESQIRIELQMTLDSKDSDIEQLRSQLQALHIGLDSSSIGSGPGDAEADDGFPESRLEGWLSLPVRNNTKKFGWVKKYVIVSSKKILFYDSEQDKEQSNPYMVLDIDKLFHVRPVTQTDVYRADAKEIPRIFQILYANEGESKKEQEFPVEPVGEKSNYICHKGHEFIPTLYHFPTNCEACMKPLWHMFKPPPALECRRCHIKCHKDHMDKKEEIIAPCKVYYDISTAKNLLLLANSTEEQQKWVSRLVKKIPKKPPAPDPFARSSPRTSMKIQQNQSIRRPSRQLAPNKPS
Chain of Interleukin-1 receptor-associated kinase 1 (P51617 whole entry): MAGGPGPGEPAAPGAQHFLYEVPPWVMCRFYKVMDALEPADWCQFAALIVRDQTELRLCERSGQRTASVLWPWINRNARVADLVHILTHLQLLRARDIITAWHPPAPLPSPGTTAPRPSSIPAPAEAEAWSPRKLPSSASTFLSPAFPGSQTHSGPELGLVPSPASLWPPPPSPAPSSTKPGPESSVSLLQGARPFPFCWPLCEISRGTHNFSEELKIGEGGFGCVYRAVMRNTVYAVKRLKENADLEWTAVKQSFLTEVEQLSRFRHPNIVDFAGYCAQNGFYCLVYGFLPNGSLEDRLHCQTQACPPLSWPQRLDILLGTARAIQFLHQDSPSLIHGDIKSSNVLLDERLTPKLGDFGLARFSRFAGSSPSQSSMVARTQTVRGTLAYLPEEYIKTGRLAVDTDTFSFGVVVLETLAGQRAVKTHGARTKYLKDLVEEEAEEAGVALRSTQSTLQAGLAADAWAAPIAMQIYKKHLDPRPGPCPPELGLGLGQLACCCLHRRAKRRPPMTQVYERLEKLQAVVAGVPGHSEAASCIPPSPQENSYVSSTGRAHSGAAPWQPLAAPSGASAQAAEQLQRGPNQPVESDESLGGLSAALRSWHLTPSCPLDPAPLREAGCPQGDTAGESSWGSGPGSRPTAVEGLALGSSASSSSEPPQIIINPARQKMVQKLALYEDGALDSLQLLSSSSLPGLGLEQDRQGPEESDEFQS

| Compound | Kd [1] | Kd [2] | Kd [3] | Kd [4] | Kd [5] | Kd [6] | Kd [7] | Kd [8] | Kd [9] |
| --- | --- | --- | --- | --- | --- | --- | --- | --- | --- |
| O=c1sn(-c2cccc3ccccc23)c(=O)n1Cc1ccccc1 [TIDEGLUSIB] | > 30 µM (inactive) | > 30 µM (inactive) | > 30 µM (inactive) | > 30 µM (inactive) | > 30 µM (inactive) | > 30 µM (inactive) | > 30 µM (inactive) | > 30 µM (inactive) | > 30 µM (inactive) |
| Cn1cc(-c2ccc3nnc(C(F)(F)c4ccc5ncccc5c4)n3n2)cn1 [JNJ-38877605] | > 30 µM (inactive) | > 30 µM (inactive) | > 30 µM (inactive) | > 30 µM (inactive) | > 30 µM (inactive) | > 30 µM (inactive) | > 30 µM (inactive) | > 30 µM (inactive) | > 30 µM (inactive) |
| Cn1ncc(Cl)c1-c1cc(C(=O)N[C@H](CN)Cc2cccc(F)c2)sc1Cl [AFURESERTIB] | > 30 µM (inactive) | > 30 µM (inactive) | > 30 µM (inactive) | > 30 µM (inactive) | 4.73 µM (active) | > 30 µM (inactive) | 0.88 µM (active) | > 30 µM (inactive) | > 30 µM (inactive) |
| CNS(=O)(=O)Nc1nccc(Cc2c(C)c3ccc(Oc4ncccn4)cc3oc2=O)c1F [AVUTOMETINIB] | > 30 µM (inactive) | > 30 µM (inactive) | > 30 µM (inactive) | > 30 µM (inactive) | > 30 µM (inactive) | > 30 µM (inactive) | > 30 µM (inactive) | > 30 µM (inactive) | > 30 µM (inactive) |
| CN(C)C(=O)c1cc2cnc(Nc3ccc(N4CCNCC4)cn3)nc2n1C1CCCC1 [RIBOCICLIB] | > 30 µM (inactive) | > 30 µM (inactive) | > 30 µM (inactive) | > 30 µM (inactive) | > 30 µM (inactive) | > 30 µM (inactive) | > 30 µM (inactive) | > 30 µM (inactive) | > 30 µM (inactive) |
| COc1ccc(-c2ccc3c(N4CCOC[C@@H]4C)nc(N4CCOC[C@@H]4C)nc3n2)cc1CO [AZD-8055] | > 30 µM (inactive) | > 30 µM (inactive) | > 30 µM (inactive) | > 30 µM (inactive) | > 30 µM (inactive) | > 30 µM (inactive) | > 30 µM (inactive) | > 30 µM (inactive) | > 30 µM (inactive) |
| COc1cc2nccc(Oc3ccc(NC(=O)Nc4cc(C)on4)c(Cl)c3)c2cc1OC [TIVOZANIB] | > 30 µM (inactive) | > 30 µM (inactive) | > 30 µM (inactive) | > 30 µM (inactive) | > 30 µM (inactive) | > 30 µM (inactive) | > 30 µM (inactive) | > 30 µM (inactive) | > 30 µM (inactive) |
| C[C@@H](Nc1cc(F)cc(F)c1)c1cc(C(=O)N(C)C)cc2c(=O)cc(N3CCOCC3)oc12 [AZD-8186] | > 30 µM (inactive) | > 30 µM (inactive) | > 30 µM (inactive) | > 30 µM (inactive) | > 30 µM (inactive) | > 30 µM (inactive) | > 30 µM (inactive) | > 30 µM (inactive) | > 30 µM (inactive) |
| CNC(=O)CN1CCC(Oc2cc3c(Nc4cccc(Cl)c4F)ncnc3cc2OC)CC1 [SAPITINIB] | > 30 µM (inactive) | > 30 µM (inactive) | > 30 µM (inactive) | > 30 µM (inactive) | > 30 µM (inactive) | > 30 µM (inactive) | > 30 µM (inactive) | > 30 µM (inactive) | > 30 µM (inactive) |
| CCCS(=O)(=O)Nc1ccc(F)c(C(=O)c2c[nH]c3ncc(-c4ccc(Cl)cc4)cc23)c1F [VEMURAFENIB] | > 30 µM (inactive) | > 30 µM (inactive) | > 30 µM (inactive) | > 30 µM (inactive) | > 30 µM (inactive) | > 30 µM (inactive) | > 30 µM (inactive) | > 30 µM (inactive) | > 30 µM (inactive) |
| COC(=O)[C@@]1(O)C[C@H]2O[C@]1(C)n1c3ccccc3c3c4c(c5c6ccccc6n2c5c31)C(=O)NC4 [K-252A] | > 30 µM (inactive) | > 30 µM (inactive) | 2.99 µM (active) | > 30 µM (inactive) | > 30 µM (inactive) | 4.85 µM (active) | 0.264 µM (active) | > 30 µM (inactive) | > 30 µM (inactive) |
| C[C@@H](c1ccc2nccn2c1)n1nnc2ncc(-c3cnn(C)c3)nc21 [SAVOLITINIB] | > 30 µM (inactive) | > 30 µM (inactive) | > 30 µM (inactive) | > 30 µM (inactive) | > 30 µM (inactive) | > 30 µM (inactive) | > 30 µM (inactive) | > 30 µM (inactive) | > 30 µM (inactive) |
| CN1CCC(COc2cnc(-c3cccc(Cn4nc(-c5cccc(C#N)c5)ccc4=O)c3)nc2)CC1 [TEPOTINIB] | > 30 µM (inactive) | > 30 µM (inactive) | > 30 µM (inactive) | > 30 µM (inactive) | > 30 µM (inactive) | > 30 µM (inactive) | > 30 µM (inactive) | > 30 µM (inactive) | > 30 µM (inactive) |
| COc1cc(N2CCC(N3CCN(C)CC3)CC2)ccc1Nc1ncnc(Nc2ccccc2S(=O)(=O)C(C)C)n1 [ASP-3026] | > 30 µM (inactive) | > 30 µM (inactive) | > 30 µM (inactive) | > 30 µM (inactive) | > 30 µM (inactive) | > 30 µM (inactive) | > 30 µM (inactive) | > 30 µM (inactive) | > 30 µM (inactive) |
| CNC(=O)c1ccc(-c2cnc3ncc(Cc4ccc5ncccc5c4)n3n2)cc1F [CAPMATINIB] | > 30 µM (inactive) | > 30 µM (inactive) | > 30 µM (inactive) | > 30 µM (inactive) | > 30 µM (inactive) | > 30 µM (inactive) | > 30 µM (inactive) | > 30 µM (inactive) | > 30 µM (inactive) |
